For series [1], the target named is human butyrylcholine esterase (Homo sapiens, UniProt P06276). In kind it is biochemical. The procedure:
A more sensitive assay was used in order to discriminate alkylphenyl diphenyl phosphates, di-alkylphenyl phenyl phosphates and tri-alkylphenyl phosphates based on their potential ability to inhibit BChE.
The assay was essentially the same as that described in Example 2 except that the triaryl phosphate solution to be tested was prepared in pure ethanol instead of in sodium phosphate buffer.
Some experiments were performed with rat liver microsomes (RLM) because human liver microsomes (HLM) were not available in sufficient quantity. However, human butyrylcholine esterase was used in all assays.
Briefly, base stock triarylphosphate solutions were prepared by dissolution or dilution of a triarylphosphate of interest in ethanol at 2.5 mg/ml. Dilution solutions were then prepared in buffer containing 10% ethanol. 7.5 μl of each dilution solution comprising a triarylphosphate was added to a liver microsome mix in phosphate buffer to give a solution comprising microsomes, NADPH (1 mM) and triarylphosphate at a concentration ranging from 0.20 to 25 μg/ml. This pre-incubation was done at room temperature for 20-25 minutes. After incubation, 7.5 μl of BChE solution (at 9.75 μg/ml in phosphate buffer) was added to the resulting microsome-containing solution. The resulting solution was incubated for 20-25 minutes. The BChE residual activity was then measured as described in Example 2 hereabove.
For each triarylphosphates, the percentages of residual BChE activity were determined for triarylphosphate final concentrations ranging from 0.3 μg/ml to 20 μg/ml.
The Durad 125® combination was used as positive control. For reminder, Durad 125 consists in a mixture of meta and para isomers of tricresyl phosphate.

The target of series [2] is human butyrylcholinesterase (BChE) (Homo sapiens, UniProt P06276). Nature of the series: In vitro BChE activity assay after incubation with human liver microsomes and NADPH (Example 2, stock in phosphate buffer). The settings on record: for BChE residual activity percentage: triaryl phosphate 25 μg/ml, BChE reference activity 3.76 nmol DTNB/min. In kind it is biochemical.
Chain of human butyrylcholinesterase (BChE) (P06276 29-602): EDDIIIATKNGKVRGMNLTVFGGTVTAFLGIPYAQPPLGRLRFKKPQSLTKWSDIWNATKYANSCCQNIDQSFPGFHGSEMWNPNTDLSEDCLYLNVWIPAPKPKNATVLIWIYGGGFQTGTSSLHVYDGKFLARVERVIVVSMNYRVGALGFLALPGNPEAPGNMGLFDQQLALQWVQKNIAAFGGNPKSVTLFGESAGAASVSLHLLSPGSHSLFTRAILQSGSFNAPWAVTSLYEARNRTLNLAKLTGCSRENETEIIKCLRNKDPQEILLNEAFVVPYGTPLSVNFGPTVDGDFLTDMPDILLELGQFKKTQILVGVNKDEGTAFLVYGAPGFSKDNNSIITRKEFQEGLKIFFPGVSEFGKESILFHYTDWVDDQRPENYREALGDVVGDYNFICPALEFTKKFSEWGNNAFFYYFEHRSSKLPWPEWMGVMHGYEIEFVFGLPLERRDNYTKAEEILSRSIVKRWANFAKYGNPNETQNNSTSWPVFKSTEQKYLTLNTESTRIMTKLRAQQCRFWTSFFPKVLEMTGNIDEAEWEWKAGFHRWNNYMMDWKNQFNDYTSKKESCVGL
Experimental: As part of the study, the neurotoxicity of triaryl phosphates and combinations thereof was evaluated through an in vitro test using a model enzyme of esterase: the human butyrylcholinesterase. The human butyrylcholinesterase (BChE), or plasma cholinesterase, has an enzyme activity profile close to that of human acetylcholinesterase.
In this assay, triarylphosphates of interest are first incubated with human liver microsomes in the presence of NADPH to enable the production of potential metabolites. The incubation with microsomes is then followed by incubation with purified human BChE in the context of a micro-BChE activity assay.
This in vitro assay thus reproduces the in vivo metabolization of triaryl phosphates in the liver and enables to evaluate the anti-esterase activity of the resulting metabolites.
Six individual preparations of the same amount were collected to form a homogeneous pool representing the variability amongst the individuals, using a Potter-Elvehem Glass-Teflon homogenizer, with a 5 run-procedure in ice.
Mixture samples of 1.7 ml were collected in polypropylene centrifuge tubes, and thereafter stored at −80° C. The measured liver microsome content was 7.83 mg/ml.
A 250 μg/ml triaryl phosphate solution was prepared in a 50 mM sodium phosphate buffer at pH 7.4 by vigorously stirring in a vortex mixer for one minute. […]
The BChE activity is then measured according to the protocol defined by Ellman and al, (Ellman and al., 1961, Biochem Pharmacol, 7: 88-95), modified for use in micro-titration format. […]
Monitoring the TNB formation is effected by measuring the absorbance at 405 nm for 4 minutes at 23° C. with a microplate optical reader such as SpectraMax Plus spectrophotometer.
The BChE residual activity in the presence of triaryl phosphate is then expressed depending on the BChE reference activity, that is to say depending on the BChE activity measured in the presence of liver microsomes and NADPH and in the absence of triaryl phosphate (reference experiment).

The subject of the next series is hens. Particulars: oral, Weiner and Jortner 1999; cited from earlier work.
A further series concerns the target plasma BChE (Rattus norvegicus, UniProt Q9JKC1). The settings on record: oral dose of 240 mg/kg, 24 hours post-dosing.
The mark [3] stands for this setting: rat liver microsomes (RLM), concentrations 1 μg/ml to 20 μg/ml.
The mark [4] stands for this setting: human liver microsomes (HLM), concentrations 1 μg/ml to 20 μg/ml.
Where [5] appears, read: human liver microsomes, up to 20 μg/ml (FIG. 3a).

Read-outs that look alike come from different tables or passages of the source.

Chain of human butyrylcholine esterase (P06276 29-602): as above
Chain of plasma BChE (Q9JKC1 24-597): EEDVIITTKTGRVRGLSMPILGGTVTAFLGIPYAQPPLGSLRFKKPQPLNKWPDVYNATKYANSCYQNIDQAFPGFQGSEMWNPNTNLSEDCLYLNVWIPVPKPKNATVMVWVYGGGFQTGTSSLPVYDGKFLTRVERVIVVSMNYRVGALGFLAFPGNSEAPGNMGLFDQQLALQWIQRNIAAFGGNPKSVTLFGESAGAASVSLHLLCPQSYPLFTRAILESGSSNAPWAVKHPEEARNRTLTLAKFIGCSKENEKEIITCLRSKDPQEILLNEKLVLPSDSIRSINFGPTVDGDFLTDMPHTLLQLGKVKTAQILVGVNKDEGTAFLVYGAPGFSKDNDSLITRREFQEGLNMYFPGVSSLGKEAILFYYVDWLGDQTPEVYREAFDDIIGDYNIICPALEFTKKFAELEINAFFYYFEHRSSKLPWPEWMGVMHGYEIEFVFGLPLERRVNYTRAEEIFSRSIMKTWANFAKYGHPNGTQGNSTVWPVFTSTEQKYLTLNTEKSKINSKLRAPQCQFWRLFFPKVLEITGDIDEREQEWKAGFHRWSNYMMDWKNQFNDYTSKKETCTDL
Experimental for plasma BChE: The activity of BChE in the plasma of rats was determined following oral administration of 240, 120, 60 and 10 mg/kg of body weight of Durad 125 or tri-para-tert-butyl phosphate at 6 hours postdosing and 24 hours postdosing. Each dose solution was prepared in a corn oil vehicle and administered by gavage. Control animals were administered an appropriate amount of corn oil (witout any triarylphosphate compounds). All animals were fasted for approximately 16 h prior to administration of the dose containing Durad 125, tri-p-t-butylphenyl phosphate or only corn oil.
Three to six animals per time point and per dose were humanely anesthetized, and sacrificed. For each animal, the blood was collected and the plasma was separated by centrifugation. The plasma samples were then stored at −80° C. until performing the BChE activity assay.
The BChE activity assay was performed as previously described according to Ellman et al (Biochem. Pharmacol. 7, 88-95).

Take 1-methylnonylphenyl diphenyl phosphate: the “Minimal BChE residual activity” value in series [1] (setting [3]) was determined as 5.2%.

With `Cc1ccccc1OP(=O)(Oc1ccccc1C)Oc1ccccc1C` [C6, tri-ortho-cresyl phosphate], in series [2], the “BChE residual activity percentage” value is recorded as “very low”. Also, in the series on hens, the neurotoxicity entry is on record as “highly neurotoxicity”.

In the case of `O=P(Oc1ccccc1)(Oc1ccccc1)Oc1ccccc1` [C7, tri-phenylphosphate], in series [2], the “BChE inhibiting potential after incubation” value is on record as “non negligible inhibiting potential” and the “BChE residual activity percentage” value is reported as 44.8 +/− 10.4%. Moreover, the neurotoxicity result with hens is reported as “non neurotoxic or poorly neurotoxic”.

Regarding `CC(C)(C)c1ccc(OP(=O)(Oc2ccc(C(C)(C)C)cc2)Oc2ccc(C(C)(C)C)cc2)cc1` [P1, Tri-para-tert-butylphenyl phosphate], the “Minimal BChE residual activity” value in series [1] (setting [4]) is 90%; in series [1] (setting [3]), >100%. Besides, in series [1] (setting [5]), the “inhibition of BChE” value is on record as “did not induce a significant inhibition of BChE”. Further, the “inhibition of plasma BChE” value at plasma BChE is on record as “does not induce BChE inhibition”.

On to `CC(C)c1ccc(OP(=O)(Oc2ccc(C(C)C)cc2)Oc2ccc(C(C)C)cc2)cc1` [P2, Tri-para-isopropylphenyl phosphate], for which, in series [1], the “Minimal BChE residual activity” value is >100% and the “inhibition of BChE” value is on record as “did not inhibit BChE”.

Take `CC(C)c1ccccc1OP(=O)(Oc1ccccc1C(C)C)Oc1ccccc1C(C)C` [P3, Tri-ortho-isopropylphenyl phosphate]: the “Minimal BChE residual activity” value in series [1] was 72.6%.

On to `CC(C)c1ccc(OP(=O)(Oc2ccccc2)Oc2ccc(C(C)C)cc2)cc1` [di-para-isopropylphenyl phenylphosphate], for which the “Minimal BChE residual activity” value in series [1] (setting [3]) was 76.5%.

Regarding `CC(C)(C)c1ccc(OP(=O)(Oc2ccccc2)Oc2ccc(C(C)(C)C)cc2)cc1` [di-para-tert-butylphenyl phenylphosphate], the “Minimal BChE residual activity” value in series [1] (setting [4]) is given as 85.2%. Also, the “inhibition of BChE” value in series [1] (setting [5]) is “did not induce a significant inhibition of BChE”.

On to `CC(C)(C)c1ccc(OP(=O)(Oc2ccccc2)Oc2ccccc2)cc1` [para-tert-butylphenyl diphenyl phosphate], for which, in series [1] (setting [4]), the “Minimal BChE residual activity” value was determined as 44.9%. Also, the “inhibition of BChE” value in series [1] (human liver microsomes, concentrations higher than 5 μg/ml (FIG. 3a)) is recorded as “at least 40%”.

In the case of `CC(C)(C)c1cccc(OP(=O)(Oc2cccc(C(C)(C)C)c2)Oc2cccc(C(C)(C)C)c2)c1` [tri-meta-tert-butylphenyl phosphate], the “Minimal BChE residual activity” value in series [1] was >100%.

`CC(C)(C)c1ccccc1OP(=O)(Oc1ccccc1C(C)(C)C)Oc1ccccc1C(C)(C)C` [tri-ortho-tert-butylphenyl phosphate]: the “Minimal BChE residual activity” value in series [1] is >100%.

Regarding dodecylphenyl diphenyl phosphate, the “Minimal BChE residual activity” value in series [1] (setting [3]) was determined as 16%.
